From patent US11053204B2, “Pyrimidinyloxy benzene derivatives as herbicides” (FMC Corporation, priority 2015, dated 2021)

Experiments:
Format in all cases: in vivo
[1] = tested on: barnyardgrass (Echinochloa crus-galli); test: Test A preemergence, visual injury rating; conditions: 0 to 100 scale (0 no effect, 100 complete control)
Description: (§1) Seeds of plant species selected from barnyardgrass (Echinochloa crus-galli), kochia (Kochia scoparia), ragweed (common ragweed, Ambrosia elatior), Italian ryegrass (Lolium multiflorum), large (Lg) crabgrass (Digitaria sanguinalis), giant foxtail (Setaria faberii), morningglory (Ipomoea spp.), pigweed (Amaranthus retroflexus), velvetleaf (Abutilon theophrasti), wheat (Triticum aestivum), and corn (Zea mays) were planted into a blend of loam soil and sand and treated preemergence with a directed soil spray using test chemicals formulated in a non-phytotoxic solvent mixture which included a surfactant.
(§2) At the same time, plants selected from these crop and weed species and also blackgrass (Alopecurus myosuroides), and galium (catchweed bedstraw, Galium aparine) were planted in pots containing the same blend of loam soil and sand and treated with postemergence applications of test chemicals formulated in the same manner. Plants ranged in height from 2 to 10 cm and were in the one- to two-leaf stage for the postemergence treatment. Treated plants and untreated controls were maintained in a greenhouse for approximately 10 days, after which time all treated plants were compared to untreated controls and visually evaluated for injury. Plant response ratings, summarized in Table A, are based on a 0 to 100 scale where 0 is no effect and 100 is complete control. A dash (-) response means no test result.

[2] = tested on: pigweed (Amaranthus retroflexus); test: Test A preemergence, visual injury rating; conditions: 0 to 100 scale (0 no effect, 100 complete control)
Description: as §1, §2

[3] = tested on: Italian ryegrass (Lolium multiflorum); test: Test A preemergence, visual injury rating; conditions: 0 to 100 scale (0 no effect, 100 complete control)
Description: as §1, §2

[4] = tested on: ragweed (common ragweed, Ambrosia elatior); test: Test A preemergence, visual injury rating; conditions: 0 to 100 scale (0 no effect, 100 complete control)
Description: as §1, §2

[5] = tested on: giant foxtail (Setaria faberii); test: Test A preemergence, visual injury rating; conditions: 0 to 100 scale (0 no effect, 100 complete control)
Description: as §1, §2

kochia (Kochia scoparia) [6] = test: Test A preemergence, visual injury rating; conditions: 0 to 100 scale (0 no effect, 100 complete control)
Description: as §1, §2

[7] = tested on: blackgrass (Alopecurus myosuroides); test: Test A postemergence, visual injury rating; conditions: 0 is no effect, 100 is complete control
Description: as §1, §2

[8] = tested on: wheat (Triticum aestivum); test: Test A postemergence, visual injury rating; conditions: 0 is no effect, 100 is complete control
Description: as §1, §2

[9] = tested on: barnyardgrass (Echinochloa crus-galli); test: Test A postemergence, visual injury rating; conditions: 0 is no effect, 100 is complete control
Description: as §1, §2

[10] = tested on: pigweed (Amaranthus retroflexus); test: Test A postemergence, visual injury rating; conditions: 0 is no effect, 100 is complete control
Description: as §1, §2

[11] = tested on: Italian ryegrass (Lolium multiflorum); test: Test A postemergence, visual injury rating; conditions: 0 is no effect, 100 is complete control
Description: as §1, §2

[12] = tested on: ragweed (common ragweed, Ambrosia elatior); test: Test A postemergence, visual injury rating; conditions: 0 is no effect, 100 is complete control
Description: as §1, §2

[13] = tested on: giant foxtail (Setaria faberii); test: Test A postemergence, visual injury rating; conditions: 0 is no effect, 100 is complete control
Description: as §1, §2

kochia (Kochia scoparia) [14] = test: Test A postemergence, visual injury rating; conditions: 0 is no effect, 100 is complete control
Description: as §1, §2

[15] = tested on: galium (catchweed bedstraw, Galium aparine); test: Test A postemergence, visual injury rating; conditions: 0 is no effect, 100 is complete control
Description: as §1, §2

corn (Zea mays) = test: Test A postemergence, visual injury rating; conditions: 0 is no effect, 100 is complete control
Description: as §1, §2

Row | SMILES | Barnyardgrass plant response rating ([1]; 125 g ai/ha) | Barnyardgrass plant response rating ([1]; 500 g ai/ha) | Pigweed plant response rating ([2]; 125 g ai/ha) | Pigweed plant response rating ([2]; 500 g ai/ha) | Ryegrass, Italian plant response rating ([3]; 125 g ai/ha) | Ryegrass, Italian plant response rating ([3]; 500 g ai/ha) | Ragweed plant response rating ([4]; 125 g ai/ha) | Ragweed plant response rating ([4]; 500 g ai/ha) | Foxtail, Giant plant response rating ([5]; 125 g ai/ha) | Foxtail, Giant plant response rating ([5]; 500 g ai/ha) | Kochia plant response rating (kochia (Kochia scoparia) [6]; 125 g ai/ha) | Kochia plant response rating (kochia (Kochia scoparia) [6]; 500 g ai/ha) | Blackgrass plant response rating (0 to 100 scale) ([7]; 125 g ai/ha) | Blackgrass plant response rating (0 to 100 scale) ([7]; 500 g ai/ha) | Wheat plant response rating (0 to 100 scale) ([8]; 125 g ai/ha) | Wheat plant response rating (0 to 100 scale) ([8]; 500 g ai/ha) | Barnyardgrass plant response rating (0 to 100 scale) ([9]; 125 g ai/ha) | Barnyardgrass plant response rating (0 to 100 scale) ([9]; 500 g ai/ha) | Pigweed plant response rating (0 to 100 scale) ([10]; 125 g ai/ha) | Pigweed plant response rating (0 to 100 scale) ([10]; 500 g ai/ha) | other results
1 | O=C(OCC(F)(F)F)c1c(Br)cccc1Oc1ncc(Br)cn1 [Compound 34] | 0 | 90 | 40 | 100 | 0 | 0 | 0 | 0 | 70 | 100 | 20 | 40 | 10 | 70 | 0 | 0 | 0 | 20 | 100 | 100 | Ryegrass, Italian plant response rating (0 to 100 scale) ([11]; 125 g ai/ha): 0; Ryegrass, Italian plant response rating (0 to 100 scale) ([11]; 500 g ai/ha): 0; Ragweed plant response rating (0 to 100 scale) ([12]; 125 g ai/ha): 0; Ragweed plant response rating (0 to 100 scale) ([12]; 500 g ai/ha): 0; Foxtail, Giant plant response rating (0 to 100 scale) ([13]; 125 g ai/ha): 20; Foxtail, Giant plant response rating (0 to 100 scale) ([13]; 500 g ai/ha): 80; Kochia plant response rating (0 to 100 scale) (kochia (Kochia scoparia) [14]; 125 g ai/ha): 60; Kochia plant response rating (0 to 100 scale) (kochia (Kochia scoparia) [14]; 500 g ai/ha): 90; Galium plant response rating (0 to 100 scale) ([15]; 125 g ai/ha): 50; Galium plant response rating (0 to 100 scale) ([15]; 500 g ai/ha): 100; Corn plant response rating (0 to 100 scale) (corn (Zea mays); 125 g ai/ha): 30; Corn plant response rating (0 to 100 scale) (corn (Zea mays); 500 g ai/ha): 30
2 | N#CCOC(=O)c1c(C#N)cccc1Oc1ncc(Cl)cn1 [Compound 39] | 0 | 0 | 0 | 0 | 0 | 0 | 0 | 0 | 0 | 0 | 0 | 0 | 0 | 0 | 0 | 0 | 0 | 0 | 0 | 0 | Ryegrass, Italian plant response rating (0 to 100 scale) ([11]; 125 g ai/ha): 0; Ryegrass, Italian plant response rating (0 to 100 scale) ([11]; 500 g ai/ha): 0; Ragweed plant response rating (0 to 100 scale) ([12]; 125 g ai/ha): 0; Ragweed plant response rating (0 to 100 scale) ([12]; 500 g ai/ha): 0; Foxtail, Giant plant response rating (0 to 100 scale) ([13]; 125 g ai/ha): 0; Foxtail, Giant plant response rating (0 to 100 scale) ([13]; 500 g ai/ha): 0; Kochia plant response rating (0 to 100 scale) (kochia (Kochia scoparia) [14]; 125 g ai/ha): 0; Kochia plant response rating (0 to 100 scale) (kochia (Kochia scoparia) [14]; 500 g ai/ha): 0; Galium plant response rating (0 to 100 scale) ([15]; 125 g ai/ha): 0; Galium plant response rating (0 to 100 scale) ([15]; 500 g ai/ha): 0; Corn plant response rating (0 to 100 scale) (corn (Zea mays); 125 g ai/ha): 0; Corn plant response rating (0 to 100 scale) (corn (Zea mays); 500 g ai/ha): 0
3 | N#CCOC(=O)c1c(Br)cccc1Oc1ncc(Cl)cn1 [Compound 40] | 0 | 50 | 40 | 100 | 0 | 0 | 0 | 0 | 20 | 100 | 60 | 90 | 10 | 20 | 0 | 20 | 0 | 20 | 70 | 100 | Ryegrass, Italian plant response rating (0 to 100 scale) ([11]; 125 g ai/ha): 0; Ryegrass, Italian plant response rating (0 to 100 scale) ([11]; 500 g ai/ha): 0; Ragweed plant response rating (0 to 100 scale) ([12]; 125 g ai/ha): 0; Ragweed plant response rating (0 to 100 scale) ([12]; 500 g ai/ha): 0; Foxtail, Giant plant response rating (0 to 100 scale) ([13]; 125 g ai/ha): 10; Foxtail, Giant plant response rating (0 to 100 scale) ([13]; 500 g ai/ha): 40; Kochia plant response rating (0 to 100 scale) (kochia (Kochia scoparia) [14]; 125 g ai/ha): 70; Kochia plant response rating (0 to 100 scale) (kochia (Kochia scoparia) [14]; 500 g ai/ha): 100; Galium plant response rating (0 to 100 scale) ([15]; 125 g ai/ha): 30; Galium plant response rating (0 to 100 scale) ([15]; 500 g ai/ha): 40; Corn plant response rating (0 to 100 scale) (corn (Zea mays); 125 g ai/ha): 20; Corn plant response rating (0 to 100 scale) (corn (Zea mays); 500 g ai/ha): 20
4 | O=C(OCCC(F)(F)F)c1c(F)cccc1Oc1ncc(Br)cn1 [Compound 41] | 0 | 0 | 30 | 40 | 0 | 0 | 50 | 80 | 0 | 0 | 30 | 30 | 0 | 0 | 0 | 0 | 0 | 0 | 90 | 90 | Ryegrass, Italian plant response rating (0 to 100 scale) ([11]; 125 g ai/ha): 0; Ryegrass, Italian plant response rating (0 to 100 scale) ([11]; 500 g ai/ha): 0; Ragweed plant response rating (0 to 100 scale) ([12]; 125 g ai/ha): 0; Ragweed plant response rating (0 to 100 scale) ([12]; 500 g ai/ha): 10; Foxtail, Giant plant response rating (0 to 100 scale) ([13]; 125 g ai/ha): 0; Foxtail, Giant plant response rating (0 to 100 scale) ([13]; 500 g ai/ha): 0; Kochia plant response rating (0 to 100 scale) (kochia (Kochia scoparia) [14]; 125 g ai/ha): 20; Kochia plant response rating (0 to 100 scale) (kochia (Kochia scoparia) [14]; 500 g ai/ha): 60; Galium plant response rating (0 to 100 scale) ([15]; 125 g ai/ha): 0; Galium plant response rating (0 to 100 scale) ([15]; 500 g ai/ha): 0; Corn plant response rating (0 to 100 scale) (corn (Zea mays); 125 g ai/ha): 0; Corn plant response rating (0 to 100 scale) (corn (Zea mays); 500 g ai/ha): 0
